Data published in ChEMBL document CHEMBL4334432, “Development of benzochalcone derivatives as selective CYP1B1 inhibitors and anticancer agents” (Medchemcomm, 2019).

Columns and labels:
[1] = test system: MCF7; test: cells; conditions: Homo sapiens, MCF7, 48 h
Description: Cytotoxicity against human MCF7 cells assessed as reduction in cell viability after 48 hrs by MTT assay

[2] = test system: MDA-MB-231; test: cells; conditions: Homo sapiens, MDA-MB-231, 48 h
Description: Cytotoxicity against human MDA-MB-231 cells assessed as reduction in cell viability after 48 hrs by MTT assay

[3] = Cytotoxicity against drug-resistant human MDA-MB-435/LCC6MDR1 cells assessed as reduction in cell viability after 48 hrs by MTT assay; format: functional, cell-based; conditions: MDA-MB-435/LCC6 MDR1, 48 h
[4] = test system: MCF7; test: Cytotoxicity against drug-resistant […]-induced human MCF7 cells overexpressing CYP1B1 assessed as reduction in cell viability after 48 hrs by MTT assay; format: functional, cell-based; conditions: MCF7, 48 h
[5] = target: T1, Cytochrome P450 1A1 (Homo sapiens, UniProt P04798); test: Inhibition of recombinant human CYP1A1 expressed in supersomes using 7-ethoxyresorufin as substrate after 15 mins in presence of NADP+ by EROD assay; format: ADME
T1 sequence (P04798 whole entry): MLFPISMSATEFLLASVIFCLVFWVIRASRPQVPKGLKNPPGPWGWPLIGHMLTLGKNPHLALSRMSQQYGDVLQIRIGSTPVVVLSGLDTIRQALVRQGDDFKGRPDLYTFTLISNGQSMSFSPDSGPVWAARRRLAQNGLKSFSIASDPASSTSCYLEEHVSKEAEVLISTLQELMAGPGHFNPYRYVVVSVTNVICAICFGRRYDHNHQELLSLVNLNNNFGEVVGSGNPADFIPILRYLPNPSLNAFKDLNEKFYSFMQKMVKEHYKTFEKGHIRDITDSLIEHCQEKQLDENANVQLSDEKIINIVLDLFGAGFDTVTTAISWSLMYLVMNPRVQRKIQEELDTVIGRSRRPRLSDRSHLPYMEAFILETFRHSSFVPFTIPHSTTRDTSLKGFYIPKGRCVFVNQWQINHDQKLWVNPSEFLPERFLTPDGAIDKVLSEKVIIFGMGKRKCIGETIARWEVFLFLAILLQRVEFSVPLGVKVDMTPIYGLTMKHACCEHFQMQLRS

[6] = target: T2, Cytochrome P450 1A2 (Homo sapiens, UniProt P05177); test: Inhibition of recombinant human CYP1A2 expressed in supersomes using 7-ethoxyresorufin as substrate after 50 mins in presence of NADP+ by EROD assay; format: ADME
T2 sequence (P05177 whole entry): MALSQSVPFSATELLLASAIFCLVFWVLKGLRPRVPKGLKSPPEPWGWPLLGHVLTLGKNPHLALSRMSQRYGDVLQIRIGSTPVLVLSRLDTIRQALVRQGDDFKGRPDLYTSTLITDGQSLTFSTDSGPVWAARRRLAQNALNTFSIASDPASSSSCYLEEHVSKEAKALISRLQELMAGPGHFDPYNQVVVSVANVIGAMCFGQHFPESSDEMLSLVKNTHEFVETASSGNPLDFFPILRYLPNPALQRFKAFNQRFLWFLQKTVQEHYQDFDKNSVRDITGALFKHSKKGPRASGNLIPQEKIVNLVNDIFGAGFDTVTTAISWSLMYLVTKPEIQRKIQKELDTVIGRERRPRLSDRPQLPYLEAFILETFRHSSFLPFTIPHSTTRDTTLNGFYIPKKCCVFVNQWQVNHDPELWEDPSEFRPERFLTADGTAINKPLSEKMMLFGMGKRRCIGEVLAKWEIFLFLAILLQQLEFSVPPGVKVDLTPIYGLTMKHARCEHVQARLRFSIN

For `O=c1cc(-c2ccccc2)oc2c1ccc1ccccc12` [ALPHA-NAPHTHOFLAVONE], the IC50 [1] was 80700 nM, the IC50 [2] was greater than 100000 nM and the IC50 [3] was 82300 nM. The IC50 [4] was greater than 100000 nM and the IC50 [5] was 80.3 nM.
`O=C(/C=C/c1ccc(F)cc1)c1ccc2ccccc2c1O` showed an IC50 [6] greater than 1000 nM.
Work on `Nc1c(C(=O)/C=C/c2ccccc2)ccc2ccccc12` yielded an IC50 [6] greater than 1000 nM.
Work on `COc1c(C(=O)/C=C/c2ccccc2)ccc2ccccc12` yielded an IC50 [6] greater than 1000 nM.
`O=C(/C=C/c1cccnc1)c1ccc2ccccc2c1O` gave an IC50 [6] of 227 nM.
For `O=C(/C=C/c1ccccc1O)c1ccc2ccccc2c1O`, the IC50 [6] was greater than 1000 nM.
In the case of `O=C(/C=C/c1ccc(Cl)cc1)c1ccc2ccccc2c1O`, the IC50 [6] is reported as greater than 1000 nM.
Compound `O=c1[nH]cc(F)c(=O)[nH]1` [FLUOROURACIL] has an IC50 [1] greater than 100000 nM, an IC50 [2] of 93800 nM and an IC50 [3] greater than 100000 nM. The IC50 [4] was greater than 100000 nM.
In the case of `O=C(/C=C/c1ccncc1)c1ccc2ccccc2c1O`, the IC50 [6] is reported as greater than 1000 nM.
`O=C(/C=C/c1cccc(Cl)c1)c1ccc2ccccc2c1O` gave an IC50 [6] greater than 1000 nM.
`COc1ccc(OC)c2c(OC)c(/C=C/C(=O)c3ccc4ccccc4c3O)cc(OC)c12` gave an IC50 [6] greater than 1000 nM.
Work on `O=C(/C=C/c1cccc(F)c1)c1ccc2ccccc2c1O` yielded an IC50 [6] greater than 1000 nM.
Work on `O=C(/C=C/c1ccccn1)c1ccc2ccccc2c1O` yielded an IC50 [6] greater than 1000 nM.
With `O=C(/C=C/c1ccccc1Cl)c1ccc2ccccc2c1O` the IC50 [6] was greater than 1000 nM.
Compound `O=C(CCc1ccccc1)c1ccc2ccccc2c1O` has an IC50 [6] greater than 1000 nM.
In the case of `COc1ccc(OC)c2c(O)c(C(=O)/C=C/c3ccccc3)cc(OC)c12`, the IC50 [6] is reported as 735 nM.
Work on `O=C(/C=C/c1ccccc1)c1ccc2ccccc2c1` yielded an IC50 [1] of 24700 nM, an IC50 [2] of 34100 nM and an IC50 [6] greater than 1000 nM. It also gave an IC50 [3] of 19400 nM and an IC50 [4] of 18200 nM.
Work on `O=C(/C=C/c1ccccc1F)c1ccc2ccccc2c1O` yielded an IC50 [6] greater than 1000 nM.
In the case of `COc1ccccc1/C=C/C(=O)c1ccc2ccccc2c1O`, the IC50 [6] is reported as greater than 1000 nM.
Compound `Nc1nc(-c2ccccc2)cc(-c2ccc3ccccc3c2)n1` has an IC50 [6] greater than 1000 nM.
With `O=C(/C=C/c1ccc[nH]1)c1ccc2ccccc2c1O` the IC50 [6] was greater than 1000 nM.
`O=C(/C=C/c1ccccc1)c1ccc2ccccc2c1O` showed an IC50 [6] greater than 1000 nM.
